Patent publication US3939143A, “1-N-isoserylkanamycins and the production thereof” (Zaidan Hojin Biseibutsu Kagaku Kenkyu Kai, priority 1973, dated 1976)
Where two headings read alike, the source gives them in different places.

Legend:
[1] = test system: Staphylococcus aureus Smith; test: Minimum inhibitory concentration, serial dilution on nutrient agar; assay type: cell-based; settings: read-out: Minimum Inhibitory Concentration
[2] = test system: Mycobacterium smegmatis ATCC 607; test: as above; assay type: cell-based; settings: Mycolicibacterium smegmatis, read-out: Minimum Inhibitory Concentration
[3] = test system: Staphylococcus aureus FDA 209P; test: as above; assay type: cell-based; settings: FDA209P, read-out: Minimum Inhibitory Concentration
[4] = test system: Pseudomonas aeruginosa 99; test: as above; assay type: cell-based; settings: Pseudomonas aeruginosa, 99, 18 h, read-out: Minimum Inhibitory Concentration
[5] = test system: Bacillus subtilis NRRL B-558; test: as above; assay type: cell-based; settings: read-out: Minimum Inhibitory Concentration
[6] = test system: Shigella dysenteriae JS 11910; test: as above; assay type: cell-based; settings: JS11910, 18 h, read-out: Minimum Inhibitory Concentration
[7] = test system: Escherichia coli K-12 ML 1410; test: as above; assay type: cell-based; settings: read-out: Minimum Inhibitory Concentration
Escherichia coli NIHJ = test: as above; assay type: cell-based; settings: read-out: Minimum Inhibitory Concentration
[8] = test system: Staphylococcus aureus Terajima; test: as above; assay type: cell-based; settings: read-out: Minimum Inhibitory Concentration
Escherichia coli W677 = test: as above; assay type: cell-based; settings: read-out: Minimum Inhibitory Concentration
[9] = test system: Escherichia coli K-12 ML 1410 R81; test: as above; assay type: cell-based; settings: 18 h, read-out: Minimum Inhibitory Concentration
[10] = test system: Klebsiella pneumoniae PCI 602; test: as above; assay type: cell-based; settings: read-out: Minimum Inhibitory Concentration
[11] = test system: Bacillus cereus ATCC 10702; test: as above; assay type: cell-based; settings: read-out: Minimum Inhibitory Concentration
Bacillus anthracis = test: microbe, parasite or virus in culture; assay type: cell-based; settings: 18 h, read-out: Minimum Inhibitory Concentration
[12] = test system: Corynebacterium bovis 1810; test: Minimum inhibitory concentration, serial dilution on nutrient agar; assay type: cell-based; settings: read-out: Minimum Inhibitory Concentration
[13] = test system: Escherichia coli LA290 R56; test: as above; assay type: cell-based; settings: LA290R56, 18 h, read-out: Minimum Inhibitory Concentration
[14] = test system: Klebsiella pneumoniae 22 No. 3038; test: as above; assay type: cell-based; settings: read-out: Minimum Inhibitory Concentration
Salmonella typhosa T-63 = test: as above; assay type: cell-based; settings: Salmonella enterica, 18 h, read-out: Minimum Inhibitory Concentration
[15] = test system: Escherichia coli K-12 ML 1629; test: as above; assay type: cell-based; settings: read-out: Minimum Inhibitory Concentration
[16] = test system: Pseudomonas aeruginosa No.12; test: as above; assay type: cell-based; settings: read-out: Minimum Inhibitory Concentration
Shigella sonnei JS 11746 = test: as above; assay type: cell-based; settings: JS11746, 37°C, 18 hours
Protocol: (§1) The minimum inhibitory concentrations (mcg/ml) of 1-N-DL-isoserylkanamycin,1-N-DL-isoserylkanamycin B and 1-N-DL-isoseryl-3',4'-dideoxykanamycin B against various microorganisms were determined according to the serial dilution method using nutrient agar medium at 37°C, the estimation being effected after 18 hours incubation. For comparison purposes, the minimum inhibitory concentrations of kanamycin, kanamycin B and 3',4'-dideoxykanamycin B were also determined in the same manner and under the same conditions as mentioned above.
(§2) The antibacterial spectra of 1-N-DL-isoseryl-kanamycin (abbreviated as 1-IS-KM), 1-N-DL-isoseryl-kanamycin B (abbreviated as 1-IS-KMB) and 1-N-DL-isoseryl-3',4'-dideoxykanamycin B (abbreviated as 1-IS-DKB) are shown in the following table together with those of kanamycin (abbreviatedas KM), kanamycin B (abbreviated as KMB) and 3',4'-dideoxykanamycin B (abbreviated as DKB).

[17] = test system: Escherichia coli K-12 ML 1630; test: as above; assay type: cell-based; settings: K12ML1630, 37°C, 18 hours
Protocol: as §1, §2

[18] = test system: Pseudomonas aeruginosa A3; test: as above; assay type: cell-based; settings: 37°C, 18 hours
Protocol: as §1, §2

[19] = test system: Shigella flexneri 4b JS 11811; test: as above; assay type: cell-based; settings: 4BJS11811, 37°C, 18 hours
Protocol: as §1, §2

[20] = test system: Pseudomonas aeruginosa TI-13; test: as above; assay type: cell-based; settings: TI13, 37°C, 18 hours
Protocol: as §1, §2

Proteus vulgaris OX 19 = test: as above; assay type: cell-based; settings: read-out: Minimum Inhibitory Concentration
[21] = test system: Salmonella enteritidis 1891; test: as above; assay type: cell-based; settings: Salmonella enterica, read-out: Minimum Inhibitory Concentration
[22] = test system: Pseudomonas aeruginosa GN315; test: as above; assay type: cell-based; settings: read-out: Minimum Inhibitory Concentration
Sarcina lutea PCI 1001 = test: as above; assay type: cell-based; settings: Micrococcus luteus, read-out: Minimum Inhibitory Concentration
Escherichia coli K-12 = test: as above; assay type: cell-based; settings: read-out: Minimum Inhibitory Concentration
[23] = test system: Escherichia coli LA290 R55; test: as above; assay type: cell-based; settings: LA290R55, 18 h, read-out: Minimum Inhibitory Concentration
[24] = test system: Escherichia coli LA290 R64; test: as above; assay type: cell-based; settings: LA290R64, 18 h, read-out: Minimum Inhibitory Concentration
[25] = test system: Escherichia coli JR66/W677; test: as above; assay type: cell-based; settings: read-out: Minimum Inhibitory Concentration
[26] = test system: Bacillus subtilis PCI 219; test: as above; assay type: cell-based; settings: read-out: Minimum Inhibitory Concentration
[27] = test system: drug-resistant strains of Escherichia coli and Pseudomonas aeruginosa; test: antibacterial activity against drug-resistant strains, in words; assay type: cell-based
[28] = test system: gram-negative and gram-positive bacteria; test: antibacterial activity, in words; assay type: cell-based; settings: gram-negative and gram-positive bacteria sensitive to kanamycins
Protocol: as §1, §2

[29] = acute toxicity upon intravenous injection in mice; assay type: in vivo; settings: mouse, in vivo; intravenous injection, mice
[30] = Corynebacterium bovis, 1810, 37°C, 18 hours

NC[C@H]1O[C@H](O[C@H]2[C@H](O)[C@@H](O[C@H]3O[C@H](CO)[C@@H](O)[C@H](N)[C@H]3O)[C@H](N)C[C@@H]2N)[C@H](N)[C@@H](O)[C@@H]1O [KMB, kanamycin B, reference compound]
< 0.2 µg/mL: MIC ([1]; 18 h) | MIC ([5]; NRRLB558, 18 h) | MIC ([8]; 18 h) | MIC (Bacillus anthracis) | MIC ([26]; PCI219, 18 h)
50 µg/mL: MIC [18]
0.2 µg/mL: MIC (Salmonella typhosa T-63)
12.5 µg/mL: MIC ([16]; NO.12, 18 h) | MIC [23]
0.39 µg/mL: MIC ([3]; 18 h) | MIC (Escherichia coli W677; W677, 18 h)
100 µg/mL: MIC [20]
0.78 µg/mL: MIC ([2]; ATCC607, 18 h) | MIC ([7]; K12ML1410, 18 h) | MIC (Escherichia coli NIHJ; 18 h) | MIC ([10]; PCI602, 18 h) | MIC ([11]; ATCC10702, 18 h) | MIC (Proteus vulgaris OX 19; OX19, 18 h) | MIC (Escherichia coli K-12; K12, 18 h)
1.56 µg/mL: MIC ([12]; Corynebacterium bovis, 1810, 18 h) | MIC (Shigella sonnei JS 11746) | MIC ([21]; 18 h) | MIC (Sarcina lutea PCI 1001; PCI1001, 18 h)
> 100 µg/mL: MIC [4] | MIC [9] | MIC ([14]; 22NO.3038, 18 h) | MIC ([15]; K12ML1629, 18 h) | MIC [17] | MIC ([22]; GN315, 18 h) | MIC ([25]; JR66/W677, 18 h)
3.13 µg/mL: MIC [6] | MIC [13] | MIC [19] | MIC [24]

NCC(O)C(=O)N[C@@H]1C[C@H](N)[C@@H](O[C@H]2O[C@H](CN)CC[C@H]2N)[C@H](O)[C@H]1O[C@H]1O[C@H](CO)[C@@H](O)[C@H](N)[C@H]1O (mixture of isomers) [1-IS-DKB, 1-N-DL-isoseryl-3',4'-dideoxykanamycin B]
0.39 µg/mL: MIC ([10]; PCI602, 37°C, 18 hours) | MIC [13] | MIC ([21]; 37°C, 18 hours) | MIC [24]
1.56 µg/mL: MIC ([7]; K12ML1410, 37°C, 18 hours) | MIC (Escherichia coli NIHJ; 37°C, 18 hours) | MIC ([11]; ATCC10702, 37°C, 18 hours) | MIC ([14]; 22NO.3038, 37°C, 18 hours) | MIC ([15]; K12ML1629, 37°C, 18 hours) | MIC ([16]; NO.12, 37°C, 18 hours) | MIC [17] | MIC (Sarcina lutea PCI 1001; PCI1001, 37°C, 18 hours) | MIC (Escherichia coli K-12; K12, 37°C, 18 hours) | MIC [23]
12.5 µg/mL: MIC ([22]; GN315, 37°C, 18 hours)
< 0.2 µg/mL: MIC ([1]; 37°C, 18 hours) | MIC ([2]; ATCC607, 37°C, 18 hours) | MIC ([5]; NRRLB558, 37°C, 18 hours) | MIC ([8]; 37°C, 18 hours) | MIC (Bacillus anthracis) | MIC ([26]; PCI219, 37°C, 18 hours)
0.78 µg/mL: MIC ([3]; 37°C, 18 hours) | MIC (Escherichia coli W677; W677, 37°C, 18 hours) | MIC [12, 30] | MIC (Salmonella typhosa T-63)
3.13 µg/mL: MIC [4] | MIC [6] | MIC (Shigella sonnei JS 11746) | MIC [18] | MIC [19] | MIC [20] | MIC ([25]; JR66/W677, 18 h)
0.2 µg/mL: MIC (Proteus vulgaris OX 19; OX19, 37°C, 18 hours)
high antibacterial activity: antibacterial activity [27] | antibacterial activity [28]
> 100 mg/kg: LD50 [29]

NCC(O)C(=O)N[C@@H]1C[C@H](N)[C@@H](O[C@H]2O[C@H](CN)[C@@H](O)[C@H](O)[C@H]2N)[C@H](O)[C@H]1O[C@H]1O[C@H](CO)[C@@H](O)[C@H](N)[C@H]1O (mixture of isomers) [1-IS-KMB, 1-N-DL-isoserylkanamycin B]
6.25 µg/mL: MIC [4] | MIC [6] | MIC ([14]; 22NO.3038, 18 h) | MIC ([16]; NO.12, 18 h) | MIC (Shigella sonnei JS 11746) | MIC [18] | MIC [20] | MIC (Sarcina lutea PCI 1001; PCI1001, 18 h)
high antibacterial activity: antibacterial activity [27] | antibacterial activity [28]
1.56 µg/mL: MIC ([3]; 18 h) | MIC ([7]; K12ML1410, 37°C, 18 hours) | MIC ([11]; ATCC10702, 37°C, 18 hours) | MIC [12, 30] | MIC (Escherichia coli K-12; K12, 37°C, 18 hours) | MIC [23]
0.78 µg/mL: MIC ([2]; ATCC607, 37°C, 18 hours) | MIC (Escherichia coli W677; W677, 37°C, 18 hours) | MIC ([10]; PCI602, 37°C, 18 hours) | MIC [13] | MIC (Salmonella typhosa T-63) | MIC (Proteus vulgaris OX 19; OX19, 37°C, 18 hours) | MIC ([21]; 37°C, 18 hours) | MIC [24]
50 µg/mL: MIC ([22]; GN315, 37°C, 18 hours)
> 100 mg/kg: LD50 [29]
12.5 µg/mL: MIC ([25]; JR66/W677, 37°C, 18 hours)
< 0.2 µg/mL: MIC ([1]; 37°C, 18 hours) | MIC ([5]; NRRLB558, 37°C, 18 hours) | MIC ([8]; 37°C, 18 hours) | MIC (Bacillus anthracis) | MIC ([26]; PCI219, 37°C, 18 hours)
3.13 µg/mL: MIC (Escherichia coli NIHJ; 18 h) | MIC [9] | MIC ([15]; K12ML1629, 18 h) | MIC [17] | MIC [19]
